Measured values as given in US20070129383A1, “Substituted 2-amino-[1,2,4]triazolo[1,5-a]pyrimidine derivative and use thereof” (priority 2003, published 2007).

These molecules were tested on MHC class I expression of T1 cell (human lymphoma line 174×CEM.) (assay: Effect on MHC class I expression of T1 cell (flow cytometry, MFI)). Conditions: 72 h, concentration inhibiting MHC class I molecule expression level by 20%, T1 cells, three days incubation, read-out: EC20.
Format: cell-based
Experimental: T1 cells (5.7×10^3 cells/200 μL/well) were incubated using a 96-well flat bottom microplate in RPMI1640 culture medium (Iwaki Glass Corporation) containing 10% bovine serum (hereinafter referred to as FBS; Iruvine Scientific) in the presence of a test compound of each concentration diluted from 400 μM by a common ratio of root 10 at 37° C. in an incubator containing 5% carbon dioxide concentration for three days. After incubation, cells were stained with fluoroisothiocyanate labeled mouse antihuman MHC class I monoclonal antibody (antibody produced by cell strain W6/32 (ATCC No, CRL1991). Mean fluorescence intensity (hereinafter referred to as MFI) of stained cells was measured with flow cytometry FACScan (BD), and this was assumed as MHC class I molecule expression level. Concentrations of the test compounds which inhibited the expression level of MHC class I molecule by 20% (EC20 value) were calculated from the following Expression (1), which are shown in Table 1. [formula]

First: CNc1nc2nccc(-c3cccs3)n2n1 [Example 001, N-methyl-7-thiophene-[1,2,4]triazolo[1,5-a]pyrimidin-2-ylamine]
Second: CC(C)=CC(=O)Nc1nc2nccc(-c3cccs3)n2n1 [Example 015]
The IC20 of the first is 1.5-fold lower: 6 µM for the first, 9.2 µM for the second.

CC(C)(C)OC(=O)Nc1nc2nccc(-c3ccccc3)n2n1 [Example 007] and COc1cccc(-c2ccnc3nc(NC(=O)OC(C)(C)C)nn23)c1 [Example 008] are within 1.5-fold of each other in IC20: 6.25 µM for the first, 7.5 µM for the second.

CC(C)(C)OC(=O)Nc1nc2nccc(-c3ccc([N+](=O)[O-])cc3)n2n1 [Example 009] and COc1ccc(-c2ccnc3nc(NC(C)=O)nn23)cc1 [Example 052] are within 1.5-fold of each other in IC20: 7.2 µM for the first, 6.8 µM for the second.

CC(=O)C1CC(CC(=O)Nc2nc3nccc(-c4cccs4)n3n2)C1(C)C (stereo not drawn) [Example 013] and O=C(CC1CCCC1)Nc1nc2nccc(-c3cccs3)n2n1 [Example 016] are within 1.5-fold of each other in IC20: 8.2 µM for the first, 9.7 µM for the second.

Compared with O=C(/C=C\Sc1ccccc1)Nc1nc2nccc(-c3cccs3)n2n1 [Example 020], O=C(CCS(=O)(=O)c1ccccc1)Nc1nc2nccc(-c3cccs3)n2n1 [Example 022, 3-benzenesulfonyl-N-(7-thiophene[1,2,4]triazolo[1,5-a]pyrimidin-2-yl)propionamide] is 1.5-fold higher in IC20: 5.3 µM for the first, 8.2 µM for the second.

O=C(Nc1nc2nccc(-c3cccs3)n2n1)C1C2CC3C(C2=O)C31 (stereo not drawn) [Example 026] and CC(C)[C@H](N)C(=O)Nc1nc2nccc(-c3cccs3)n2n1 [Example 040] are within 1.5-fold of each other in IC20: 8.8 µM for the first, 8.4 µM for the second.

CC1(C)CC(=O)C=C(C(=O)Nc2nc3nccc(-c4cccs4)n3n2)O1 [Example 028, 6,6-dimethyl-4-oxo-5,6-dihydro-4H-pyran-2-carboxylic acid N-(7-thiophen-2-yl-[1,2,4]triazolo[1,5-a]pyrimidin-2-yl)amide] and CCC(NC(=O)OC(C)(C)C)C(=O)Nc1nc2nccc(-c3cccs3)n2n1 [Example 047, (S)-(1-(7-thiophen-2-yl-triazolo[1,5-a]-pyrimidin-2-ylcarbamoyl)propyl)carbamic acid tert-butyl ester] are within 1.5-fold of each other in IC20: 7.7 µM for the first, 7.3 µM for the second.

Going from CC(C)(C)OC(=O)NC(CSCc1ccccc1)C(=O)Nc1nc2nccc(-c3cccs3)n2n1 (stereo not drawn) [Example 036] to COc1cccc(-c2ccnc3nc(NC(=O)CCS(=O)(=O)c4ccccc4)nn23)c1 [Example 054, 3-benzenesulfonyl-N-(7-(3-methoxyphenyl)-[1,2,4]triazolo[1,5-a]pyrimidin-2-yl)propionamide], the IC20 falls from 7.1 µM to 4 µM (1.8-fold).

First: O=C(CCS(=O)(=O)c1ccccc1)Nc1nc2nccc(-c3ccccc3)n2n1 [Example 055]
Second: COc1ccc(-c2ccnc3nc(NC(=O)CCS(=O)(=O)c4ccccc4)nn23)cc1 [Example 056, 3-benzenesulfonyl-N-(7-(4-methoxyphenyl)-[1,2,4]triazolo[1,5-a]pyrimidin-2-yl)propionamide]
The IC20 of the first is 2.2-fold higher: 1.6 µM for the first, 0.74 µM for the second.
